# Measurements: ChEMBL document CHEMBL1201862, “PubChem BioAssay data set” (2004)
# Active and inactive are the calls of the source.
# Tests used:
# HEK293 = test: cells; type: functional, cell-based; conditions: Homo sapiens
# [1] = molecular target: T1, Nuclear receptor subfamily 0 group B member 1 (Homo sapiens, UniProt P51843); test: Luminescence-based cell-based high throughput dose response assay for inhibitors of the orphan nuclear receptor subfamily 0, group B, member 1 (DAX1; NR0B1). [Related pubchem assays (depositor defined):AID504766, AID504790]; type: functional
# T1 sequence (P51843 whole entry): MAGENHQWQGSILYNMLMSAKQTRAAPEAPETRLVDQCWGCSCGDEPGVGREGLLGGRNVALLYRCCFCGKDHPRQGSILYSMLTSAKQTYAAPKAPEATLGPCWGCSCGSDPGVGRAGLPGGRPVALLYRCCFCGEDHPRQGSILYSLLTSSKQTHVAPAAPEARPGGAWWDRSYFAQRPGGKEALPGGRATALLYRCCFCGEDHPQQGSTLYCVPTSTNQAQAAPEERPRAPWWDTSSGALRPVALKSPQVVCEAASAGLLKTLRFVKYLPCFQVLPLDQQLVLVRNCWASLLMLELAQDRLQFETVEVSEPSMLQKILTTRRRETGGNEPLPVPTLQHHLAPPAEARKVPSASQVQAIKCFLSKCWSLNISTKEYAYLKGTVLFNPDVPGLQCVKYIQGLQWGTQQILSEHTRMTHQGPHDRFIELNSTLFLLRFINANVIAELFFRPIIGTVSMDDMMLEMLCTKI
# [2] = molecular target: T2, RNA-binding protein pos-1 (Caenorhabditis elegans, UniProt G5EF15); test: disruptors of C. elegans POS-1 RNA interaction – biochemical, fluorescence polarization, dose response (AID 1964);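 note: purified POS-1 fused to maltose binding protein made in E. coli; potency of compounds blocking POS-1 binding to fluorescent RNA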
# T2 sequence (G5EF15 whole entry): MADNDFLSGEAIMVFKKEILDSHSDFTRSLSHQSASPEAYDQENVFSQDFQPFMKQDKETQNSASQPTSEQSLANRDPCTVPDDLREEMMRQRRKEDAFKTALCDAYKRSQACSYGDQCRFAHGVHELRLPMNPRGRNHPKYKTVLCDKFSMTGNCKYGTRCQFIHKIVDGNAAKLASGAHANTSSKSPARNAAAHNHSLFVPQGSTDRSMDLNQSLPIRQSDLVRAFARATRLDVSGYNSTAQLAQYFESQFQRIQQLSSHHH
# [3] = molecular target: T3, Zinc finger protein mex-5 (Caenorhabditis elegans, UniProt Q9XUB2); test: potency of MEX-5 RNA-binding blockers – biochemical, C. elegans, fluorescence polarization, dose response (AID 1960)
# T3 sequence (Q9XUB2 whole entry): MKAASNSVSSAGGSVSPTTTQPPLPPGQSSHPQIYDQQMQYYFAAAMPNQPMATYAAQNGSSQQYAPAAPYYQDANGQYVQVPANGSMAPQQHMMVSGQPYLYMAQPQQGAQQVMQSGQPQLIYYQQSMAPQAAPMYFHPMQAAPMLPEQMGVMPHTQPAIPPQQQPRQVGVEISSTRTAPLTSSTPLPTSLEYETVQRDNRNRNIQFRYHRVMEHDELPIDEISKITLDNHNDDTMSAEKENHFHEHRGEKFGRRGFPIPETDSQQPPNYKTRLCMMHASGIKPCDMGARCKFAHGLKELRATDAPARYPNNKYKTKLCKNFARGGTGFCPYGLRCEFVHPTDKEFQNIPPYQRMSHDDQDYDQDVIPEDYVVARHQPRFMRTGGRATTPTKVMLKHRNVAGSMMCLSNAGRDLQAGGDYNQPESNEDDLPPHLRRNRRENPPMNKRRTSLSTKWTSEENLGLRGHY
# [4] = molecular target: T4, Endoribonuclease toxin MazF (Escherichia coli K-12, UniProt P0AE70); test: substrate-only fluorescence increase artefacts – biochemical, single-stranded RNase substrate, counter-screen for MazEF activator project, dose response (AID 588502); type: functional
# T4 sequence (P0AE70 whole entry): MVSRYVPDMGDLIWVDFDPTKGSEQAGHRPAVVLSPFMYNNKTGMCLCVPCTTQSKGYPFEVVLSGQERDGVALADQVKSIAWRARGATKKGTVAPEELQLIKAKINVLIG
# [5] = molecular target: T4, Endoribonuclease toxin MazF; test: activation of MazEF endoribonuclease cleavage – biochemical, fluorescence, single-stranded RNA substrate, uHTS hits, dose response (AID 588481); type: functional
# Beta-galactosidase = Beta-galactosidase (Escherichia coli, UniProt Q8VNN2); test: PubChem AID 485352; type: functional
# Chain of Beta-galactosidase (Q8VNN2 whole entry): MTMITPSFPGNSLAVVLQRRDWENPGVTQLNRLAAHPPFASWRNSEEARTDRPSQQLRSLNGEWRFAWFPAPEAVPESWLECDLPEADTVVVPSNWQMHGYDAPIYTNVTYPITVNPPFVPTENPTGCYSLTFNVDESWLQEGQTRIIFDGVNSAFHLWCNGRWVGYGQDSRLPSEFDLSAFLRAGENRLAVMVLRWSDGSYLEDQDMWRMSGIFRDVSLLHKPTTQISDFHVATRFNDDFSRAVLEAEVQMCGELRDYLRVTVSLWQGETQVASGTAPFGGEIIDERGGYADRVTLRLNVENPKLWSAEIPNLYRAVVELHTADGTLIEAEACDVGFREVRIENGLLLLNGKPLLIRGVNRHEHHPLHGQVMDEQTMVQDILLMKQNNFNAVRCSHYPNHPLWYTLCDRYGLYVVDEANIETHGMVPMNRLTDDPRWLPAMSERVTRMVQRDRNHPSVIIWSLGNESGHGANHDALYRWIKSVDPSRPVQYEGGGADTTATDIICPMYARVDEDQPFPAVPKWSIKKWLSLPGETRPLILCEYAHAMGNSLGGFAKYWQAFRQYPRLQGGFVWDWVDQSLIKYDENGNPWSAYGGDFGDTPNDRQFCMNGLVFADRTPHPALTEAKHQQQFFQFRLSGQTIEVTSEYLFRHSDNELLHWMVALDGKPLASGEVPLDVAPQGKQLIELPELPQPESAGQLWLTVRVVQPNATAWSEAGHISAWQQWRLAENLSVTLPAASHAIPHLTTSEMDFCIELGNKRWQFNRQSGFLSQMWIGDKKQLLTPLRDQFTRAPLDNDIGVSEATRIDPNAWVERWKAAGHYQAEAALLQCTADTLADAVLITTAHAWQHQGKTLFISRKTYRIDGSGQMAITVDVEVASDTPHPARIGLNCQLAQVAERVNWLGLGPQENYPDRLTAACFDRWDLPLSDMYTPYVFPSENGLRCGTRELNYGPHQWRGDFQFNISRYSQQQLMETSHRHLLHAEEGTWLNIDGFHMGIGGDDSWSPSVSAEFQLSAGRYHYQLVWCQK
# [6] = molecular target: T5, Type-1 angiotensin II receptor (Homo sapiens, UniProt P30556); test: antagonism of angiotensin II type 1 receptor – cell-based, uHTS hits, selectivity assay for APJ receptor antagonist project, dose response (AID 463214); type: functional;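 note: antagonist potency against angiotensin II stimulated AT1 response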
# T5 sequence (P30556 whole entry): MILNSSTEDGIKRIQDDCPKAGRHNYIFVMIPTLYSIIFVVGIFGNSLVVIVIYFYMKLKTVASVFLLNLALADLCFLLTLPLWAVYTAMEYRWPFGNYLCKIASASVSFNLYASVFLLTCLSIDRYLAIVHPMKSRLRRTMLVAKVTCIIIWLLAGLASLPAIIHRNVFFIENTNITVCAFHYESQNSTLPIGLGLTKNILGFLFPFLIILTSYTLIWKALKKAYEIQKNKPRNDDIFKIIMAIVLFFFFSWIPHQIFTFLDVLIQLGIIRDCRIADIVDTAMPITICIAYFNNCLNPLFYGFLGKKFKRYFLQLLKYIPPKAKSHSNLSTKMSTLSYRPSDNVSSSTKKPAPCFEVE
# Cytochrome P450 2C9 = Cytochrome P450 2C9 (Homo sapiens, UniProt P11712)
# Chain of Cytochrome P450 2C9 (P11712 whole entry): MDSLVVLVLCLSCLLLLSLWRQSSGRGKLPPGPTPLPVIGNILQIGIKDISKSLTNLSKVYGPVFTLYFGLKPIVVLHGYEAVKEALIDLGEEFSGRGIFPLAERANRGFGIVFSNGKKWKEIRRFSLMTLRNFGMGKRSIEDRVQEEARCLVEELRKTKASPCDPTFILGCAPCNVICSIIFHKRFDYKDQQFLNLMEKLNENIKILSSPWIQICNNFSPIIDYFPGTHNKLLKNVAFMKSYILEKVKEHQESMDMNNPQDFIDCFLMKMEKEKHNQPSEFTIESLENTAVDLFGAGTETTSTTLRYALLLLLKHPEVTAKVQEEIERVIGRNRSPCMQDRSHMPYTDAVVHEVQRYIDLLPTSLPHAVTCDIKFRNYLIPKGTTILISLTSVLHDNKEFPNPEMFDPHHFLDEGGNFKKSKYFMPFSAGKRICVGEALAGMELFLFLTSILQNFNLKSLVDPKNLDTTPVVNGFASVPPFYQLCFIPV
# [7] = molecular target: T6, Corticotropin-releasing factor receptor 2/Corticotropin-releasing factor-binding protein (Homo sapiens, UniProt P24387+Q13324); test: activators of CRF receptor 2 with binding protein – uHTS hits, confirmation (AID 602473); type: functional; conditions: read-out: EC50_Mean
# T6 sequence (Q13324 whole entry): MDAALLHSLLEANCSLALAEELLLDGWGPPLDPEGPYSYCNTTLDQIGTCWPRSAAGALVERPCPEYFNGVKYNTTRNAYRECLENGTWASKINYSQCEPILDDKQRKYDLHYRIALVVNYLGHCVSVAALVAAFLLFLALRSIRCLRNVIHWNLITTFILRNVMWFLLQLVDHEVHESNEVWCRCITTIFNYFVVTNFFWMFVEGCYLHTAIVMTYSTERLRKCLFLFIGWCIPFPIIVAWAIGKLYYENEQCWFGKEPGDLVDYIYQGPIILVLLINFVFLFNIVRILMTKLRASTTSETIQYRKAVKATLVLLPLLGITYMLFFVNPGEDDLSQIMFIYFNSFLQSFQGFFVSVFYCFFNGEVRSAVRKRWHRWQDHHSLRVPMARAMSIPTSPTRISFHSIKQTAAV
# T6 sequence (P24387 whole entry): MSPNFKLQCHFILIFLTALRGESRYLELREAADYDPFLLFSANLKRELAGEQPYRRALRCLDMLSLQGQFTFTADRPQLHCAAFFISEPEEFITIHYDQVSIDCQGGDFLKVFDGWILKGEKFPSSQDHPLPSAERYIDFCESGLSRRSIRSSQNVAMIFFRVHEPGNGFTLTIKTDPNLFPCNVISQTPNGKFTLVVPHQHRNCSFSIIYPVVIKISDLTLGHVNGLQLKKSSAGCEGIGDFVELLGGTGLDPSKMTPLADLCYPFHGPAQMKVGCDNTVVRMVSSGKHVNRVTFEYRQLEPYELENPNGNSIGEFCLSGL
# [8] = molecular target: Delta-type opioid receptor (Homo sapiens, UniProt P41143); test: Counterscreen for agonists of heterodimerization of the mu 1 (OPRM1) and delta 1 (OPRD1) opioid receptors: Luminescence-based cell-based high throughput dose response assay to identify agonists of OPRD1 homodimerization. [Related pubchem assays (depositor defined):AID504326, AID504355, AID504692, AID504904, AID504905]; type: functional
# Chain of Delta-type opioid receptor (P41143 whole entry): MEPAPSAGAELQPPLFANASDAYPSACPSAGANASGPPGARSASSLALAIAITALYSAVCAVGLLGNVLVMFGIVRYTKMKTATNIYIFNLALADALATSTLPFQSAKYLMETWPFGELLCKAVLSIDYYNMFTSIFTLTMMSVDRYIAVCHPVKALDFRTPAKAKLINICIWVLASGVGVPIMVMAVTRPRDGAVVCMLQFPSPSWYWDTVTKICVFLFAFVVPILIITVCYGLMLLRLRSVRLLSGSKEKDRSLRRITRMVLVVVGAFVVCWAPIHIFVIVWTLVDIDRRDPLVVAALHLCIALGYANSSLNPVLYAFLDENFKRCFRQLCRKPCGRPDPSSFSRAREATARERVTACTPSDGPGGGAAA
# Mu-type opioid receptor = Mu-type opioid receptor (Homo sapiens, UniProt P35372); test: Counterscreen for agonists of heterodimerization of the mu 1 (OPRM1) and delta 1 (OPRD1) opioid receptors: Luminescence-based cell-based high throughput dose response assay to identify agonists of OPRM1 homodimerization.; type: functional;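 note: U2OS cells expressing OPRM1 and beta-arrestin as split beta-galactosidase partners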
# Chain of Mu-type opioid receptor (P35372 whole entry): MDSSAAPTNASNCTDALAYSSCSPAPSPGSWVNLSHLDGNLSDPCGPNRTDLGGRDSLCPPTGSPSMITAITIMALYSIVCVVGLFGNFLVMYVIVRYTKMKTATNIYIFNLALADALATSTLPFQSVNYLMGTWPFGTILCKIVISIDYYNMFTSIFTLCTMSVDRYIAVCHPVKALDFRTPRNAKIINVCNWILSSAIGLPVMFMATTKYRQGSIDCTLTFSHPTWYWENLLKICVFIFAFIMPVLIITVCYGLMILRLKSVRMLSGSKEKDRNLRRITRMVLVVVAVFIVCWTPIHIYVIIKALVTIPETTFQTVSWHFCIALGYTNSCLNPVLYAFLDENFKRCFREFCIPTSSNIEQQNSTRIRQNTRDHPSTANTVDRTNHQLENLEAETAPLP
# [9] = molecular target: 5-hydroxytryptamine receptor 5A (Homo sapiens, UniProt P47898); test: Counterscreen for agonists of OPRM1-OPRD1 heterodimerization: luminescence-based cell-based high throughput dose response assay to identify agonists of 5-hydroxytryptamine (serotonin) 5A receptor (HTR5A). [Related pubchem assays (depositor defined):AID504326, AID504355, AID504692, AID504904, AID504905]; type: functional
# Chain of 5-hydroxytryptamine receptor 5A (P47898 whole entry): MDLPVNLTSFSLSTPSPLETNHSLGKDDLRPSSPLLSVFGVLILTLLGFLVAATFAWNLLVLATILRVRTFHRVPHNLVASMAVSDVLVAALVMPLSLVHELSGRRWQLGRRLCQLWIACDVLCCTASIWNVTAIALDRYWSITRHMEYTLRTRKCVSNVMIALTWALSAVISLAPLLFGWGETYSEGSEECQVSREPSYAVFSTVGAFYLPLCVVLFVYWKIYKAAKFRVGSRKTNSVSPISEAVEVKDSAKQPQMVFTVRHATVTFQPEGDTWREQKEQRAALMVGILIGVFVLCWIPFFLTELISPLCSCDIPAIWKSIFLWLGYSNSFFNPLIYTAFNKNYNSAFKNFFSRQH
# [10] = molecular target: T7, Short transient receptor potential channel 4 (Mus musculus, UniProt Q9QUQ5); test: calcium entry via TRPC4 opening agents – cell-based, HEK293 TRPC4/mu-opioid, Fluo-4 calcium, dose response (AID 434937); type: functional
# T7 sequence (Q9QUQ5 whole entry): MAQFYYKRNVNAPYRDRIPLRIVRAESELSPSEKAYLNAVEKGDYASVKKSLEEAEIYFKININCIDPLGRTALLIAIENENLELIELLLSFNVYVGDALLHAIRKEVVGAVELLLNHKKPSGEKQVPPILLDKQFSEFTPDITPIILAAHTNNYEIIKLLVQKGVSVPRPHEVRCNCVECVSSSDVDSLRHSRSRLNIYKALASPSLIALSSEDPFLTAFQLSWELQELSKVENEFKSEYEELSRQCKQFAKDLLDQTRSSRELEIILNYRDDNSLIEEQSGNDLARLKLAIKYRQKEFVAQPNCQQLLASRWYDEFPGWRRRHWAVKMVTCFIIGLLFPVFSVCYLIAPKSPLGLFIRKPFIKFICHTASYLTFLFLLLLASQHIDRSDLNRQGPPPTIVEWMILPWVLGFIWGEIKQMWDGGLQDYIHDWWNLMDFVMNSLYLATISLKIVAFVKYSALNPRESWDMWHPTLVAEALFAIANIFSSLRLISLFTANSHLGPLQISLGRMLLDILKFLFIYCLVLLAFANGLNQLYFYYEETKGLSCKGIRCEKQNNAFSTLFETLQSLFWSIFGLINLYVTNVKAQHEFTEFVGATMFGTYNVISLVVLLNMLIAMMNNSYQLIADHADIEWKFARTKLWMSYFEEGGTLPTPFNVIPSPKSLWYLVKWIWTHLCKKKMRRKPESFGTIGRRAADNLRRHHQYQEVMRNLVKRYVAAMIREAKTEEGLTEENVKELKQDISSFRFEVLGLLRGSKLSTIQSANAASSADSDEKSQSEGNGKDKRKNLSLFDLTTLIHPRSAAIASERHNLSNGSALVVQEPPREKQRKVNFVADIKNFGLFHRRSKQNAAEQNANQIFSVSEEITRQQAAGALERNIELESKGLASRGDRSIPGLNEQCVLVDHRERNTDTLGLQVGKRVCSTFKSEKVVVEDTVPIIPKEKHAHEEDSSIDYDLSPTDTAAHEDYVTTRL
# [11] = A Cell Based Secondary Assay To Explore Cytotoxicity of Compounds that Sensitize Mycobacterium Tuberculosis to Beta-Lactam Antibiotics.; type: functional
# [12] = molecular target: T8, DNA repair protein RAD52 homolog (Homo sapiens, UniProt P43351); type: functional, biochemical
# T8 sequence (P43351 whole entry): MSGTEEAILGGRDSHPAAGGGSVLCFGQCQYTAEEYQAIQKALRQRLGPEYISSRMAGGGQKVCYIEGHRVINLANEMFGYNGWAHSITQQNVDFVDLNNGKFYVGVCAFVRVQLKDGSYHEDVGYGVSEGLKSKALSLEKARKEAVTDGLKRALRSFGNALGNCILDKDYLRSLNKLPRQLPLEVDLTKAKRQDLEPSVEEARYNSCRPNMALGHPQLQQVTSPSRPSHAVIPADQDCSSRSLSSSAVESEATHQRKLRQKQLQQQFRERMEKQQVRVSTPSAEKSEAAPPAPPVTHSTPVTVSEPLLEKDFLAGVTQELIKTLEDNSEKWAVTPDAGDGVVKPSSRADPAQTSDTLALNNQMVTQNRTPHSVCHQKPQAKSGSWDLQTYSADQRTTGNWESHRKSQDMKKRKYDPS
# [13] = A549 cell cytotoxicity, dose response, cytotoxicity control, plate reader, cherry-pick, antagonist series (AID 743412); type: functional, cell-based
# [14] = blockade of melanocortin 4 receptor signaling – cell-based, plate reader, cherry pick, counter-screen for LGR2 antagonist project, dose response (AID 743444); type: functional;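 note: transfected HEK 293 cells stimulated with alpha-MSH peptide; potency of inhibitors of the alpha-MSH evoked signal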
# [15] = blockers of bursicon-stimulated LGR2 cAMP reporter – cell-based, HEK293, CRE-luciferase reporter, cherry pick, set 2, dose response (AID 743343); type: functional;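 note: transfected cells were stimulated with diluted bursicon conditioned medium after compound addition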
compound,measurement,setting,value
Cn1c(N)c(C(=O)COC(=O)CSc2ccccc2)c(=O)n(C)c1=O,IC50,HEK293,> 67.6 µM (inactive)
same,IC50,[1],> 67.6 µM (inactive)
Oc1[nH]c2ccccc2c1N=Nc1cccc(Cl)c1,EC50,[2],125 µM (active)
same,EC50,[3],45.4 µM (active)
same,EC50,[4],> 99 µM (inactive)
same,EC50,[5],> 99 µM (inactive)
O=C(COC(=O)c1cccnc1)c1ccc(Cl)c(Cl)c1,EC50,Beta-galactosidase,> 40 µM (inactive)
same,IC50,[6],36.8 µM (not active)
same,AC50,Cytochrome P450 2C9,7.94 µM (inconclusive)
NC(=O)c1c(NC(=O)c2ccccc2)sc2c1CCN(Cc1ccccc1)C2,EC50,[2],> 300 µM (not active)
same,EC50,[7],12.6 µM (active)
same,EC50,[3],> 300 µM (inconclusive)
same,EC50,[4],> 99 µM (inactive)
same,EC50,[5],> 99 µM (inactive)
COC(=O)CSc1[nH]c2ccc(Br)cc2c1[N+](=O)[O-],EC50,Beta-galactosidase,> 40 µM (inactive)
same,IC50,[6],> 40 µM (not active)
COc1ccc(OC)c(C(C)NC(=O)c2ccc(Br)cc2)c1 (centres undefined),IC50,HEK293,> 67.6 µM (inactive)
same,IC50,[1],> 67.6 µM (inactive)
CN1CCN(c2ccc(NC(=O)c3ccc(-c4cccc([N+](=O)[O-])c4)o3)cc2)CC1,EC50,[8],70 µM (inactive)
same,EC50,Mu-type opioid receptor,> 30.8 µM (inactive)
same,EC50,[9],> 92.5 µM (inactive)
same,EC50,[10],0.299 µM (active)
same,CC50,[11],29 µM (active)
same,AC50,[12],10.3 µM (active)
Nc1nccc(-c2cc(-c3ccc(Cl)cc3Cl)no2)n1,IC50,HEK293,> 67.6 µM (inactive)
same,IC50,[1],> 67.6 µM (inactive)
same,AC50,[13],> 52 µM (inactive)
same,AC50,[14],8.35 µM (active)
same,AC50,[15],8.96 µM (active)
